Data published in patent EP2970215B1, “PYRROLIDINE DERIVATIVES, PHARMACEUTICAL COMPOSITIONS CONTAINING THEM, AND THEIR USE IN THERAPY” (AbbVie Deutschland GmbH & Co. KG, priority 2013, dated 2014).

target: T1, human GlyT1c transporter (Homo sapiens, UniProt P48067); assay: Radioligand binding assay using recombinant CHO cell membranes expressing human GlyT1; details: radioligand binding to human GlyT1c transporter-expressing membranes
T1 construct: expressed in transfected cells; host or cells: CHO cells (recombinant; line hGlyT1c_5_CHO is named for the uptake assay)
T1 sequence (P48067 1-706): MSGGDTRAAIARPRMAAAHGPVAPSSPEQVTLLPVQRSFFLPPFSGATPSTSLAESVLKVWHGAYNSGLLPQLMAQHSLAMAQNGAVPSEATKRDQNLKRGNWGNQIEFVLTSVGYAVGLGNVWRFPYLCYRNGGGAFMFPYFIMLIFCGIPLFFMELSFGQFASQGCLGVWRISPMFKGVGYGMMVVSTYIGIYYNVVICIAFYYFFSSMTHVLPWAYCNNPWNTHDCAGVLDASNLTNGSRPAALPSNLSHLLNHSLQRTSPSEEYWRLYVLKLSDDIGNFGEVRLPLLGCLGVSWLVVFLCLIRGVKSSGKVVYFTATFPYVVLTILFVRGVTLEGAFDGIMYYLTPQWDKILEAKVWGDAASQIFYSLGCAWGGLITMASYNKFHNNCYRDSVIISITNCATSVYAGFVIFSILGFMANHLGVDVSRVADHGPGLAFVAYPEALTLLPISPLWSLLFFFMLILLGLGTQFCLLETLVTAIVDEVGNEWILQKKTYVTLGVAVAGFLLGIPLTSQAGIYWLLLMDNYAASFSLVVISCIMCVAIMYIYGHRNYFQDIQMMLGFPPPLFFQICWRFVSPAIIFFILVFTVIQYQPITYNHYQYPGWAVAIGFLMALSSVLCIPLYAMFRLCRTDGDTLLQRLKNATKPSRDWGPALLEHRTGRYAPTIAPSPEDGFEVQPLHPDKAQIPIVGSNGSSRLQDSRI
Excerpt: 2. Radioligand binding assays using recombinant CHO cell membranes expressing human GlyT1: […]

`Cn1cnc(S(=O)(=O)N2C[C@@H](Nc3cc(Cl)cc(C#N)c3)[C@H](c3ccccc3)C2)c1` (relative stereo) [Example 80, 3-chloro-5-({trans-1-[(1-methyl-1H-imidazol-4-yl)sulfonyl]-4-phenylpyrrolidin-3-yl}amino)benzonitrile] and `Cn1cnc(S(=O)(=O)N2C[C@@H](Nc3cccnc3)[C@H](c3ccccc3)C2)c1` (relative stereo) [Example 208, N-{trans-1-[(1-methyl-1H-imidazol-4-yl)sulfonyl]-4-phenylpyrrolidin-3-yl}pyridin-3-amine] cannot be ordered by Ki: ≤ 1000 nM for the first, ≤ 10000 nM for the second.

`Cn1cnc(S(=O)(=O)N2C[C@H](NCc3cc4cccnc4s3)[C@@H](c3ccccc3)C2)c1` [Example 442, (3R,4S)-1-[(1-methyl-1H-imidazol-4-yl)sulfonyl]-4-phenyl-N-(thieno[2,3-b]pyridin-2-ylmethyl)pyrrolidin-3-amine] and `Cn1cnc(S(=O)(=O)N2C[C@H](NCc3ccnc(Cl)c3F)[C@@H](c3ccccc3)C2)c1` [Example 567, (3R,4S)-N-[(2-chloro-3-fluoropyridin-4-yl)methyl]-1-[(1-methyl-1H-imidazol-4-yl)sulfonyl]-4-phenylpyrrolidin-3-amine] cannot be ordered by Ki: ≤ 1000 nM for the first, ≤ 1000 nM for the second.

`Cn1cnc(S(=O)(=O)N2C[C@@H](NC(=O)c3cccc(C(F)(F)F)c3Cl)[C@H](c3ccc(F)cc3)C2)c1` (relative stereo) [Example 3, 2-chloro-N-{trans-4-(4-fluorophenyl)-1-[(1-methyl-1H-imidazol-4-yl)sulfonyl]pyrrolidin-3-yl}-3-(trifluoromethyl)benzamide] and `Cn1cnc(S(=O)(=O)N2C[C@@H](C(=O)NCc3cc(C(F)(F)F)ccc3Cl)[C@H](c3ccc(F)cc3)C2)c1` (relative stereo) [Example 633, Trans-N-[2-chloro-5-(trifluoromethyl)benzyl]-4-(4-fluorophenyl)-1-[(1-methyl-1H-imidazol-4-yl)sulfonyl]pyrrolidine-3-carboxamide] cannot be ordered by Ki: ≤ 100 nM for the first, ≤ 1000 nM for the second.

`O=S(=O)(c1ccc2c(c1)OCO2)N1CC(Nc2ccc(F)c(F)c2)C(c2ccccc2)C1` (centres unmarked) [Example 495, 1-(1,3-benzodioxol-5-ylsulfonyl)-N-(3,4-difluorophenyl)-4-phenylpyrrolidin-3-amine] and `O=S(=O)(c1cnc2n1CCC2)N1CC(Nc2ccc(F)c(F)c2)C(c2ccccc2)C1` (centres unmarked) [Example 497, N-(3,4-difluorophenyl)-1-(6,7-dihydro-5H-pyrrolo[1,2-a]imidazol-3-ylsulfonyl)-4-phenylpyrrolidin-3-amine] cannot be ordered by Ki: > 10000 nM for the first, ≤ 10000 nM for the second.

`Cn1cnc(S(=O)(=O)N2C[C@@H](Nc3cccnc3)[C@H](c3ccc(F)cc3)C2)c1` (relative stereo) [Example 179, N-{trans-4-(4-fluorophenyl)-1-[(1-methyl-1H-imidazol-4-yl)sulfonyl]pyrrolidin-3-yl}pyridin-3-amine] and `Cn1cnc(S(=O)(=O)N2CC(c3ccc(F)cc3)C(c3ccc(Cl)cc3)C2)c1` (centres unmarked) [Example 340, 4-{[3-(4-chlorophenyl)-4-(4-fluorophenyl)pyrrolidin-1-yl]sulfonyl}-1-methyl-1H-imidazole] cannot be ordered by Ki: ≤ 10000 nM for the first, ≤ 1000 nM for the second.

Going from `Cn1cnc(S(=O)(=O)N2C[C@H](NC(=O)CC3CC3)[C@@H](c3ccccc3)C2)c1` [Example 546, 2-cyclopropyl-N-{(3R,4S)-1-[(1-methyl-1H-imidazol-4-yl)sulfonyl]-4-phenylpyrrolidin-3-yl}acetamide] to `Cn1cnc(S(=O)(=O)N2C[C@@H](NC(=O)c3cccc(C(F)(F)F)c3)[C@H](c3ccccc3)C2)c1` (relative stereo) [Example 36, N-{trans-1-[(1-methyl-1H-imidazol-4-yl)sulfonyl]-4-phenylpyrrolidin-3-yl}-3-(trifluoromethyl)benzamide], the Ki falls from ≥ 10000 nM to ≤ 1000 nM. The second binds more tightly here.

`Cn1cnc(S(=O)(=O)N2C[C@@H](Nc3cccc(C(F)(F)F)c3F)[C@H](c3ccccc3)C2)c1` (relative stereo) [Example 222, trans-N-[2-fluoro-3-(trifluoromethyl)phenyl]-1-[(1-methyl-1H-imidazol-4-yl)sulfonyl]-4-phenylpyrrolidin-3-amine] and `Cn1cnc(S(=O)(=O)N2C[C@@H](Nc3ccc(F)c(F)c3F)[C@H](c3ccccc3)C2)c1` (relative stereo) [Example 234, trans-1-[(1-methyl-1H-imidazol-4-yl)sulfonyl]-4-phenyl-N-(2,3,4-trifluorophenyl)pyrrolidin-3-amine] cannot be ordered by Ki: ≤ 1000 nM for the first, ≤ 1000 nM for the second.

`Cn1cnc(S(=O)(=O)N2C[C@@H](C(=O)NCc3cc(C(F)(F)F)ccn3)[C@H](c3ccc(F)cc3)C2)c1` (relative stereo) [Example 635, Trans-4-(4-fluorophenyl)-1-[(1-methyl-1H-imidazol-4-yl)sulfonyl]-N-{[4-(trifluoromethyl)pyridin-2-yl]methyl}pyrrolidine-3-carboxamide] and `CCCNC(=O)[C@@H]1CN(S(=O)(=O)c2cn(C)cn2)C[C@H]1c1ccc(F)cc1` [Example 580, (3S,4R)-4-(4-fluorophenyl)-1-[(1-methyl-1H-imidazol-4-yl)sulfonyl]-N-propylpyrrolidine-3-carboxamide] cannot be ordered by Ki: ≤ 1000 nM for the first, ≤ 1000 nM for the second.

`Cn1cnc(S(=O)(=O)N2C[C@@H](Nc3ccccc3F)[C@H](c3ccccc3)C2)c1` (relative stereo) [Example 69, trans-N-(2-fluorophenyl)-1-[(1-methyl-1H-imidazol-4-yl)sulfonyl]-4-phenylpyrrolidin-3-amine] and `Cn1cnc(S(=O)(=O)N2C[C@H](Nc3ccc4c(c3)CCCC4)[C@@H](c3ccccc3)C2)c1` [Example 657, (3R,4S)-1-[(1-methyl-1H-imidazol-4-yl)sulfonyl]-4-phenyl-N-(5,6,7,8-tetrahydronaphthalen-2-yl)pyrrolidin-3-amine] cannot be ordered by Ki: ≤ 10000 nM for the first, ≤ 1000 nM for the second.

`CCCCCN[C@H]1CN(S(=O)(=O)c2cn(C)cn2)C[C@@H]1c1ccc(F)cc1` [Example 664, (3R,4S)-4-(4-fluorophenyl)-1-[(1-methyl-1H-imidazol-4-yl)sulfonyl]-N-pentylpyrrolidin-3-amine] and `Cn1cnc(S(=O)(=O)N2C[C@@H](NCc3ccc(Cl)cc3Cl)[C@H](c3cccnc3)C2)c1` (relative stereo) [Example 286, trans-N-(2,4-dichlorobenzyl)-1-[(1-methyl-1H-imidazol-4-yl)sulfonyl]-4-(pyridin-3-yl)pyrrolidin-3-amine] cannot be ordered by Ki: ≤ 100 nM for the first, ≤ 10000 nM for the second.

`Cn1cnc(S(=O)(=O)N2C[C@@H](N3Cc4cc(C(F)(F)F)ccc4NC3=O)[C@H](c3ccccc3)C2)c1` (relative stereo) [Example 404, 3-{Trans-1-[(1-methyl-1H-imidazol-4-yl)sulfonyl]-4-phenylpyrrolidin-3-yl}-6-(trifluoromethyl)-3,4-dihydroquinazolin-2(1H)-one] and `Cn1cnc(S(=O)(=O)N2C[C@@H](Nc3ccnc(C(F)(F)F)c3)[C@H](c3ccccc3Cl)C2)c1` (relative stereo) [Example 259, N-{trans-4-(2-chlorophenyl)-1-[(1-methyl-1H-imidazol-4-yl)sulfonyl]pyrrolidin-3-yl}-2-(trifluoromethyl)pyridin-4-amine] cannot be ordered by Ki: ≤ 10000 nM for the first, ≤ 1000 nM for the second.

`N#Cc1ccccc1S(=O)(=O)N1C[C@@H](Nc2cc(C(F)(F)F)ccn2)[C@H](c2ccccc2)C1` (relative stereo) [Example 525, 2-{[trans-3-phenyl-4-{[4-(trifluoromethyl)pyridin-2-yl]amino}pyrrolidin-1-yl]sulfonyl}benzonitrile] was tested, and the Ki was ≤ 10000 nM.
